Each compound was assayed against PIK3CG (human) (UniProt P48736) (assay: Assessment of PIK3CG Kinase Activity).
Sequence of PIK3CG (human) (P48736 whole entry, looked up): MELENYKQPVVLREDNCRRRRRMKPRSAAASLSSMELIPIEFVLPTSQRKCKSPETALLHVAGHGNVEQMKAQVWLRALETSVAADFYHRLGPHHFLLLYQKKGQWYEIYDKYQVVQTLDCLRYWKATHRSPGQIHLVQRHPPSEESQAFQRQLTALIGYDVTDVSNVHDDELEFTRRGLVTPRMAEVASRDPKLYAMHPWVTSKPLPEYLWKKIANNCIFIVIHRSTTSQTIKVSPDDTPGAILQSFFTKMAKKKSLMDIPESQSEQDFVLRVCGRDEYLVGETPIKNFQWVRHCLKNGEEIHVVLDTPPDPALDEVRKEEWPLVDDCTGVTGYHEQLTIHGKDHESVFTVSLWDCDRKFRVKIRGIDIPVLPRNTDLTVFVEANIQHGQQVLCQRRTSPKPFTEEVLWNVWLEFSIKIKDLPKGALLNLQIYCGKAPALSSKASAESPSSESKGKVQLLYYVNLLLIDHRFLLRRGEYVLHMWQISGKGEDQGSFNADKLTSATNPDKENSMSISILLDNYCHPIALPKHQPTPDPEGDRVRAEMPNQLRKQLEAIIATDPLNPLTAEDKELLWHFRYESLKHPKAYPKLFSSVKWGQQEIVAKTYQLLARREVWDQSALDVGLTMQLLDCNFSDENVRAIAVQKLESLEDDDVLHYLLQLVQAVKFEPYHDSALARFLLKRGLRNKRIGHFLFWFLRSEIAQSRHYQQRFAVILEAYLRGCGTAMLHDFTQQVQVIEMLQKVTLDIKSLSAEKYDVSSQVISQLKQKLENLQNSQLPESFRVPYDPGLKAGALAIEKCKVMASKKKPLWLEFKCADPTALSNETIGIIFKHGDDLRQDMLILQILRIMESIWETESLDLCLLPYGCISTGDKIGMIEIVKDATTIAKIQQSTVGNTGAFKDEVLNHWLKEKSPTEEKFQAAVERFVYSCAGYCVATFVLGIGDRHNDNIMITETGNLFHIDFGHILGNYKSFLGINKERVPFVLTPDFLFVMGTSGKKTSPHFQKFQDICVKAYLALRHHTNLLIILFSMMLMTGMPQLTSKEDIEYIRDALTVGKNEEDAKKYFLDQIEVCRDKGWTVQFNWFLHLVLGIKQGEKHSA

IC50, < 0.8 µM:
O=C(NCC1CCOCC1)Nc1nc2c(s1)-c1nc(-c3ccccc3Cl)ncc1CC2
O=C(Nc1nc2c(s1)-c1nc(-c3cccc(F)c3Cl)ncc1CC2)NC1CC1
O=C(Nc1nc2c(s1)-c1nc(-c3ccccc3Cl)ncc1CC2)N1CCCC(C(O)c2ccccc2)C1 (configuration not stated)
CC(C)(C)CC(=O)N[C@@H]1CCN(C(=O)Nc2nc3c(s2)-c2nc(-c4ccccc4Cl)ncc2CC3)C1
CC(C)(CNc1ccc(C(C)(C)C)cc1)NC(=O)Nc1nc2c(s1)-c1nc(-c3ccccc3Cl)ncc1CC2
CC(C)(C)c1ncc2c(n1)-c1sc(NC(=O)NCc3cccc(N4CCNC4=O)c3)nc1CC2
CS(=O)(=O)N[C@H]1CCN(C(=O)Nc2nc3c(s2)-c2nc(-c4ccccc4Cl)ncc2CC3)C1
Cn1cc(CCNC(=O)Nc2nc3c(s2)-c2nc(-c4ccccc4Cl)ncc2CC3)cn1
O=C(NCc1ccc2c(c1)OCO2)Nc1nc2c(s1)-c1nc(-c3ccccc3Cl)ncc1CC2
O=C(Nc1nc2c(s1)-c1nc(-c3ccccc3Cl)ncc1CC2)N1CCC(NC(=O)C(F)(F)F)C1 (configuration not stated)
O=C(NCc1cccc(OC(F)(F)F)c1)Nc1nc2c(s1)-c1nc(-c3ccccc3Cl)ncc1CC2
CC(C)(C)OC(=O)N1CCC[C@@H]1CNC(=O)Nc1nc2c(s1)-c1nc(-c3ccccc3Cl)ncc1CC2
O=C(NCc1cccc(NC(=O)N2CCOCC2)c1)Nc1nc2c(s1)-c1nc(-c3ccccc3Cl)ncc1CC2
O=C(NCCCN1CCNC1=O)Nc1nc2c(s1)-c1nc(-c3ccccc3Cl)ncc1CC2
CN(C)C(=O)Nc1nc2c(s1)-c1nc(-c3ccccc3Br)ncc1CC2
CC(C)NC(=O)Nc1nc2c(s1)-c1nc(-c3cccc(F)c3Cl)ncc1CC2
O=C(Nc1nc2c(s1)-c1nc(-c3ccccc3Cl)ncc1CC2)N1CCC(c2c[nH]c3ccccc23)CC1
CN(C)C(=O)Nc1nc2c(s1)-c1nc(-c3ccccc3C(F)(F)F)ncc1CC2
O=C(NCc1cccc(NC(=O)C2CCCC2)c1)Nc1nc2c(s1)-c1nc(-c3ccccc3Cl)ncc1CC2
O=C(Nc1nc2c(s1)-c1nc(-c3ccccc3Cl)ncc1CC2)N1CC[C@@H](NC(=O)N2CCCC2)C1
Cn1cc(CNC(=O)Nc2nc3c(s2)-c2nc(-c4cccc(F)c4Cl)ncc2CC3)cn1
CS(=O)(=O)c1cccc(CNC(=O)Nc2nc3c(s2)-c2nc(-c4ccccc4Cl)ncc2CC3)c1
COCC(=O)N[C@H]1CCN(C(=O)Nc2nc3c(s2)-c2nc(-c4ccccc4Cl)ncc2CC3)C1
O=C(NCc1nnn[nH]1)Nc1nc2c(s1)-c1nc(-c3ccccc3Cl)ncc1CC2
CC(C)C(=O)N[C@H]1CCN(C(=O)Nc2nc3c(s2)-c2nc(-c4ccccc4Cl)ncc2CC3)C1
CN(C)C(=O)CCNC(=O)Nc1nc2c(s1)-c1nc(-c3ccccc3Cl)ncc1CC2
CCN(CC)CCNC(=O)Nc1nc2c(s1)-c1nc(-c3ccccc3Cl)ncc1CC2
CC(C)N(C)C(=O)N[C@H]1CCN(C(=O)Nc2nc3c(s2)-c2nc(-c4ccccc4Cl)ncc2CC3)C1
COc1ccc(CCNC(=O)Nc2nc3c(s2)-c2nc(-c4ccccc4Cl)ncc2CC3)cc1OC
CN(C)C(=O)CNC(=O)Nc1nc2c(s1)-c1nc(-c3ccccc3Cl)ncc1CC2
CCOC(=O)CCNC(=O)Nc1nc2c(s1)-c1nc(-c3ccccc3Cl)ncc1CC2
CC(C)CNC(=O)Nc1nc2c(s1)-c1nc(-c3cccc(F)c3Cl)ncc1CC2

Reference: the Kinase Knowledgebase extract (Sharma et al. 2016)
